Several values for one entry are separate records, joined by “and”; a condition that tells them apart may be missing. Identical values can stand only once.
How the values were obtained:
Assay type in all cases: cell-based
[1] = test system: BT474 breast cancer cells; test: Emergence of erlotinib resistance, continuous treatment for 35 days
Description: We conducted a similar experiment with BT474 breast cancer cells continuously treated with erlotinib, an inhibitor of EGFR, another member of the same HER family as HER2/Neu. 600,000 cells per T75 flask were plated in the continuous presence of […] erlotinib, […] Senexin B, or a combination of both (changing drug-containing media twice a week). […] The macroscopic and microscopic views of the corresponding samples after 35 days of treatment are shown in FIG. 11 and FIG. 12, respectively.

[2] = test system: ER-HER2+ breast cancer cell line HCC-1419; test: MTT assay for relative cell number, drug combination analysis (CompuSyn CI)
Description: (§1) In these experiments, 2000 cells/well were plated in each well of 96 well plates. […] Treatment was repeated after 3 days, and the MTT assay for relative cell number was performed after the total of 7 days of treatment. The Combination Index (CI) values were calculated using CompuSyn® (www.combosyn.com), a web tool based on the principles described in Chou (2006).
(§2) The same analysis as above was conducted in ER-HER2+ breast cancer cell line HCC-1419 which, despite high levels of HER2, is intrinsically resistant to trastuzumab but sensitive to lapatinib; this pattern of resistance has been associated with activated phosphoinositide 3-kinase/AKT signaling (O'Brien et al., 2010). We also analyzed ER-HER2+ breast cancer cell line JIMT-1, which is intrinsically resistant to both trastuzumab and lapatinib.

[3] = test system: ER-HER2+ breast cancer cell line JIMT-1; test: as above
Description: as §1, §2

[4] = test system: BT474, a ER+HER2+ breast cancer cell line; test: as above
Description: (§3) FIG. 1 presents an analysis of the nature of the interaction between CDK8/19 inhibitor Senexin B (a.k.a. SNX2-1-165) developed and owned by Senex Biotechnology, Inc.) and a HER2-specific monoclonal antibody (a biosimilar of trastuzumab from Biocad, Strelna, Russia) in BT474, a ER+HER2+ breast cancer cell line. In these experiments, 2000 cells/well were plated in each well of 96 well plates. […] Treatment was repeated after 3 days, and the MTT assay for relative cell number was performed after the total of 7 days of treatment. The Combination Index (CI) values were calculated using CompuSyn® (www.combosyn.com), a web tool based on the principles described in Chou (2006). […] Similar analysis was conducted for the interaction between Senexin B and lapatinib (LAP), a small-molecule inhibitor of both HER2 and EGFR, in the same cells; using a SNXB:LAP molar ratio of 10:1.

ER-HER2+ cell line SKBR3 = test: as above; details: Senexin B + lapatinib; three experiments
Description: as §3
The same analysis was then conducted using an ER-HER2+ cell line SKBR3 (cells were plated at 1,500 cells per well).

[5] = test system: lapatinib-selected SKBR3-LT cells; test: Sensitivity of lapatinib-selected cells versus parental SKBR3, 7-day treatment; details: 7 days
[6] = test system: SKBR3 (ER-HER2+) breast cancer cell line; test: Emergence of lapatinib resistance, continuous exposure for 16 weeks, crystal violet staining; details: for inhibition of cell growth after 1 week of treatment: single agent, 2.5 μM Senexin B or 250 nM lapatinib
Excerpt: (§4) A major problem for chemotherapy in general and for molecularly targeted drugs in particular is the development of drug resistance. The ability to prevent the development of drug resistance could allow sustained response to targeted drugs and transform the outcome of cancer therapy. Since CDK8 is a key mediator of transcriptional reprogramming (Galbraith et al., 2010, 2013), we hypothesized that CDK8 inhibition may prevent the induction of transcription that may be associated with epigenetic acquisition of drug resistance. To test this hypothesis, we plated BT474 (ER+HER2+) and SKBR3 (ER-HER2+) breast cancer cell lines at 250,000 cells per T25 flask, and the cells were continuously exposed to 2.5 μM Senexin B, 250 nM lapatinib, alone and in combination, for a period of 16 weeks, changing drug-containing media twice a week. At selected time points, cells in flasks were fixed with methanol:acetic acid and stained with crystal violet. The results for BT474 are shown in FIG. 9 and for SKBR3 in FIG. 10. […] However, by week 4 (in the case of BT474) or week 8 (in the case of SKBR3), the outgrowth of cells treated with lapatinib alone became noticeable compared to cells treated with lapatinib+Senexin B combination.

[7] = test system: BT474 (ER+HER2+) breast cancer cell line; test: as above; details: for inhibition of cell growth after 1 week of treatment: single agent, 2.5 μM Senexin B or 250 nM lapatinib
Excerpt: as §4

[8] = test system: HER2+ colon cancer cell line HT-29; test: MTT assay for relative cell number, drug combination analysis (CompuSyn CI); details: for response of cells to drug alone: single agent
Description: as §3
(§5) To determine if CDK8/19 inhibition affects the response of HER2+ colon cancer cells to lapatinib, we conducted the same type of analysis as above on two HER2+ colon cancer cell lines, HCT-116 and HT-29 (both plated at 1500 cells per well).

[9] = test system: HER2+ colon cancer cell line HCT-116; test: as above; details: for response of cells to drug alone: single agent
Description: as §3, §5

[10] = Senexin B + trastuzumab biosimilar (TRAST)
[11] = combination of 250 nM lapatinib and 2.5 μM Senexin B
[12] = combination of Senexin B and lapatinib
[13] = 250 nM lapatinib alone, compared to lapatinib+Senexin B combination

SMILES: CN1CCN(C(=O)c2ccc3cc(CCNc4ncnc5ccc(C#N)cc45)ccc3c2)CC1 [Senexin B]
- emergence of resistant colonies after 35 days of treatment ([1]; combination of 10 mM erlotinib and 1 mM Senexin B): prevented the emergence of resistance
- CI (Combination Index) ([2]; Senexin B + lapatinib): 0.64
- CI (Combination Index) [2, 10]: 0.45
- IC50 CI (Combination Index) ([3]; Senexin B + lapatinib): 0.39
- IC50 CI (Combination Index) [3, 10]: 0.04
- IC75 CI (Combination Index) ([4]; Senexin B (SNXB) + trastuzumab biosimilar (HER), fixed ratio 100 nM SNXB:1 μg/ml HER, 7 days, first experiment): 0.019
- IC50 CI (Combination Index) ([4]; Senexin B + lapatinib (LAP), SNXB:LAP molar ratio 10:1, separate experiments): 0.512 and 0.728
- IC50 CI (Combination Index) (ER-HER2+ cell line SKBR3): 0.611 and 0.674 and 0.470
- sensitivity of SKBR3-LT relative to SKBR3 ([5]; Senexin B combination with lapatinib, fixed ratio): essentially unchanged
- sensitivity of SKBR3-LT relative to SKBR3 ([5]; Senexin B combination with trastuzumab biosimilar, fixed ratio): essentially unchanged
- sensitivity of SKBR3-LT relative to SKBR3 ([5]; single agent): essentially unchanged
- cell growth after 16 weeks of continuous treatment [6, 11]: did not grow
- inhibition of cell growth after 1 week of treatment [6]: limited effect
- cell growth after 16 weeks of continuous treatment [7, 11]: did not grow
- inhibition of cell growth after 1 week of treatment [7]: limited effect
- CI (Combination Index) ([8]; Senexin B + lapatinib): 0.314
- response of cells to combination [8, 12]: significant response
- response of cells to drug alone [8]: weak response
- CI (Combination Index) ([9]; Senexin B + lapatinib): 0.647
- response of cells to combination [9, 12]: significant response
- response of cells to drug alone [9]: weak response

SMILES: C#Cc1cccc(Nc2ncnc3cc(OCCOC)c(OCCOC)cc23)c1 [erlotinib]
- emergence of resistant colonies after 35 days of treatment ([1]; 10 mM erlotinib alone): erlotinib-resistant colonies emerged
- initial effect on cell growth ([1]; 10 mM erlotinib alone): initially inhibited cell growth

SMILES: CS(=O)(=O)CCNCc1ccc(-c2ccc3ncnc(Nc4ccc(OCc5cccc(F)c5)c(Cl)c4)c3c2)o1 [lapatinib]
- response of cells to drug alone ([3]; single agent): resistant
- sensitivity of SKBR3-LT relative to SKBR3 ([5]; single agent): less sensitive
- cell growth after 16 weeks of continuous treatment ([6]; 250 nM lapatinib alone): actively proliferating
- time by which outgrowth of treated cells became noticeable [6, 13]: ≤ 8 week
- inhibition of cell growth after 1 week of treatment [6]: extremely effective
- cell growth after 16 weeks of continuous treatment ([7]; 250 nM lapatinib alone): actively proliferating
- time by which outgrowth of treated cells became noticeable [7, 13]: ≤ 4 week
- inhibition of cell growth after 1 week of treatment [7]: extremely effective
- response of cells to drug alone [8]: weak response
- response of cells to drug alone [9]: weak response

Source: patent US20170196868A1, “METHODS AND COMPOSITIONS FOR TREATMENT OF HER-POSITIVE CANCERS” (UNIVERSITY OF SOUTH CAROLINA, priority 2014, published 2017)
